Reference: article PMC8548588, “Cesium tolerance is enhanced by a chemical which binds to BETA-GLUCOSIDASE 23 in Arabidopsis thaliana” (Scientific Reports, 2021)

Target: T1, AtβGLU23 (BETA-GLUCOSIDASE 23, PYK10) (Arabidopsis thaliana, UniProt Q9SR37)
T1 construct: gene BGLU23; native protein from total protein extract of 11-day-old seedlings
T1 sequence (Q9SR37 25-524): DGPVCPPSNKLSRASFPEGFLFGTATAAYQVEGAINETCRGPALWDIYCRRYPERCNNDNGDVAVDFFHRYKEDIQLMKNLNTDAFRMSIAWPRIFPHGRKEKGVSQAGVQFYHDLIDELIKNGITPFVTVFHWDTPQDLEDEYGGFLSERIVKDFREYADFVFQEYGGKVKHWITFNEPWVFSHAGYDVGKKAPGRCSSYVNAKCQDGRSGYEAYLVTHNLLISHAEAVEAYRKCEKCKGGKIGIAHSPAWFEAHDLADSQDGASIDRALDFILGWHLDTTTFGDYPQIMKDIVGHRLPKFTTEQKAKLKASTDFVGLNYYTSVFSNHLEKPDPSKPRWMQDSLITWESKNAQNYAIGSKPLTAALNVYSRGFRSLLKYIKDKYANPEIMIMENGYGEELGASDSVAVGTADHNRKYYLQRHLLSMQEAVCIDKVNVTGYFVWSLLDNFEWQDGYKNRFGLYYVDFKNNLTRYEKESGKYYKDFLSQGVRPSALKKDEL
Test: pull-down from plant extract with photo-cross-linked compound beads, SDS-PAGE, LC-MS/MS
Type: binding
Conditions: compound immobilised on photoaffinity-linker-coated agarose beads; 10 mM CsCl, pH 7.6, 4 °C, 18-24 h; control beads without compound

pull-down from plant extract with photo-cross-linked compound beads, SDS-PAGE, L: CsToAcE1, binds to AtβGLU23
Compound: Cc1cc(C(=O)Cn2cc(C(F)(F)F)ccc2=O)c(C)n1C(C)C [CsToAcE1, 1-[2-[2,5-Dimethyl-1-(propan-2-yl)-1H-pyrrol-3-yl]-2-oxoethyl]-5-(trifluoromethyl)-1,2-dihydropyridin-2-one]
